Data as given in patent publication US9611295B2, “Treatment of IL-17 mediated disease by blocking SEFIR-SEFIR interactions” (THE CLEVELAND CLINIC FOUNDATION, priority 2011, dated 2017).

Key:
[1] = test system: IL-17-dependent signaling; test: IL-17-dependent signaling in MEFs by Western blotting (pIκB, pJNK, pERK, pp38 MAPK); format: cell-based, mouse
Method: (§1) FIG. 4 provides data showing that a cell-permeable CC′ loop decoy peptide disrupts the interaction between Act1 and IL-17RA and inhibits IL-17R and IL-25R signaling. FIG. 4A provides sequences of Antennapedia homeodomain (Antp) (SEQ ID NO: 11)and decoy peptides (SEQ ID NOS 23-25 and 17, respectively, in order of appearance) with the Antp sequence underlined. FIG. 4B provides flow cytometry results based on experiments in which MEFs expressing IL-17RB were incubated for 2 or 24 hours with the indicated FITC-tagged peptides (200 μM) and were then analyzed by flow cytometry. […] The percentages of FITC-positive cells in the treated samples are shown. […] FIG. 4D provides Western blot results of experiments in which MEFs expressing IL-17RB were incubated with the indicated peptides (200 μM) for 24 hours after which they were treated with IL-17 or IL-25 and then analyzed by Western blotting with the indicated antibodies. […] The abundances of Cxcl1 and Il13 mRNAs were then measured by real-time RT-PCR. […]
(§2) Decoy peptides are based on surface-exposed regions of the primary sequence of a protein to mimic a putative interaction interface. […] These decoy peptides were also tagged at their C-termini with fluorescein isothiocyanate (FITC) to enable their cell-penetrating efficiency to be evaluated by flow cytometric sanalysis. […]

[2] = test system: IL-17-mediated expression of Cxcl1; test: IL-17-mediated Cxcl1 mRNA expression in MEFs, real-time RT-PCR; format: cell-based, mouse; settings: peptides 200 μM for 24 hours, then IL-17 for 3 hours
Method: as §1, §2

DRQIKIWFQNRRMKWKKLDEDEHGLHTKY [CC′ loop decoy peptide]
IL-17-dependent signaling (pIκB, pJNK, pERK, pp38 MAPK) ([1]; MEFs expressing IL-17RB, peptides 200 μM, 24 hours): partly attenuated
dose and time dependence of inhibition of IL-17-dependent signaling and gene expression ([1]; data not shown): dose-and time-dependent manner
inhibition of IL-17-mediated expression of Cxcl1 [2]: ~50 % inhibition
